# Results from ChEMBL document CHEMBL1817578, “2-({6-[(3R)-3-amino-3-methylpiperidine-1-yl]-1,3-dimethyl-2,4-dioxo-1,2,3,4-tetrahydro-5H-pyrrolo[3,2-d]pyrimidine-5-yl}methyl)-4-fluorobenzonitrile (DSR-12727): a potent, orally active dipeptidyl peptidase IV inhibitor without mechanism-based inactivation of CYP3A” (Bioorg Med Chem, 2011).
# Legend:
# [1] = Cmax in dog at 3 mg/kg, po; format: ADME, organism-based, Canis lupus familiaris; set-up: dose 3 mg/kg, route oral; conditions: in vivo
# Dipeptidyl peptidase 4 = Dipeptidyl peptidase 4 (Homo sapiens, UniProt P27487); assay: Inhibition of DPP4 in human plasma assessed as formation of 7-amino-4-methylcoumarin from glycyl-L-proline 4-methylcoumaryl-7-amide by fluorescence assay
# Chain of Dipeptidyl peptidase 4 (P27487 whole entry): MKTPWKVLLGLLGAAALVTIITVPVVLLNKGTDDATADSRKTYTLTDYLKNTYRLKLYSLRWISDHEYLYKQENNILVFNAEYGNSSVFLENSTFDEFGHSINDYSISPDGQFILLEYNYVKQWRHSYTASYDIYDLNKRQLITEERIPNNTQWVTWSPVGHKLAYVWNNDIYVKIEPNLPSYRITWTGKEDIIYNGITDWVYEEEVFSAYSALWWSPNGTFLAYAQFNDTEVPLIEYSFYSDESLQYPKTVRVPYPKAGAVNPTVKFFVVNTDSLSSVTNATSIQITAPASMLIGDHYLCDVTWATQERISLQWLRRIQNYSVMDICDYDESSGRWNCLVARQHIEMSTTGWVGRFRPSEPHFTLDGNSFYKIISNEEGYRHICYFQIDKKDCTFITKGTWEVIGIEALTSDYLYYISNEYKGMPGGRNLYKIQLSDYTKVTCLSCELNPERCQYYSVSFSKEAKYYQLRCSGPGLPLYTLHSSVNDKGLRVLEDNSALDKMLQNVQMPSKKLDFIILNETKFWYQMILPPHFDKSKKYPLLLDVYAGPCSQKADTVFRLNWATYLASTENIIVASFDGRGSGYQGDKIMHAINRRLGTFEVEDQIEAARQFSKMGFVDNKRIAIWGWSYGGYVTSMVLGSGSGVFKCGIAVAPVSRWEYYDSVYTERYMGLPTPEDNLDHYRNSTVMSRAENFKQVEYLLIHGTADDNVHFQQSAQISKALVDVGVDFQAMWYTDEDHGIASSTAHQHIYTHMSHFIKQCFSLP
# [2] = Clearance in monkey at 1 mg/kg, iv; format: ADME, organism-based, Macaca mulatta; set-up: dose 1 mg/kg, route intravenous; conditions: rhesus monkey, in vivo
# [3] = Cmax in monkey at 3 mg/kg, po; format: ADME, organism-based, Macaca mulatta; set-up: dose 3 mg/kg, route oral; conditions: rhesus monkey, in vivo
# [4] = AUC in Zucker fatty rat at 3 mg/kg, po after 3 hrs; format: ADME, organism-based; set-up: time < 3 hr, dose 3 mg/kg, route oral; conditions: plasma
# [5] = Oral bioavailability in monkey at 3 mg/kg, po; format: ADME, organism-based, Macaca mulatta; conditions: rhesus monkey, in vivo
# Cytochrome P450 3A4 = Cytochrome P450 3A4 (Homo sapiens, UniProt P08684); assay: Inhibition of CYP3A4; format: ADME
# Chain of Cytochrome P450 3A4 (P08684 whole entry): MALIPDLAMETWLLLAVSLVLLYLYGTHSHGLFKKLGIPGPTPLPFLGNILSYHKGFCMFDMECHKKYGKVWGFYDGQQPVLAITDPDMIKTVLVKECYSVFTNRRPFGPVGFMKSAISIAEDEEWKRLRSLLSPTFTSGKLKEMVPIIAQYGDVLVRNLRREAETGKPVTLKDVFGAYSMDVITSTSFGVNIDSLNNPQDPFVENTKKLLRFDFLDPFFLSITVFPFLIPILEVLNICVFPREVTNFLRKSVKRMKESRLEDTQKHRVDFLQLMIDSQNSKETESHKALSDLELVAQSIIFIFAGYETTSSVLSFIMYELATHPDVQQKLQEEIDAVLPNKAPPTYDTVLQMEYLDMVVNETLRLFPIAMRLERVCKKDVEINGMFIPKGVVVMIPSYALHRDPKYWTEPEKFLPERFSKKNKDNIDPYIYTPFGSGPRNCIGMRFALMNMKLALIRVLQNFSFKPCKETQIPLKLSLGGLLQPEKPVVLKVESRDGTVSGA
# [6] = Half life in dog at 3 mg/kg, po; format: ADME, organism-based, Canis lupus familiaris; set-up: dose 3 mg/kg, route oral; conditions: in vivo
# Salmonella typhimurium = assay: Genotoxicity in Salmonella Typhimurium by Ames test; format: toxicity, organism-based; conditions: salmonella enterica subsp. enterica serovar typhimurium
# [7] = Cmax in rat at 3 mg/kg, po; format: ADME, organism-based; set-up: dose 3 mg/kg, route oral; conditions: in vivo
# [8] = Half life in rat at 1 mg/kg, iv; format: ADME, organism-based; set-up: dose 1 mg/kg, route intravenous; conditions: in vivo
# Cytochrome P450 1A2 = biological target: T1, Cytochrome P450 1A2 (Homo sapiens, UniProt P05177); assay: Inhibition of CYP1A2; format: ADME
# T1 sequence (P05177 whole entry): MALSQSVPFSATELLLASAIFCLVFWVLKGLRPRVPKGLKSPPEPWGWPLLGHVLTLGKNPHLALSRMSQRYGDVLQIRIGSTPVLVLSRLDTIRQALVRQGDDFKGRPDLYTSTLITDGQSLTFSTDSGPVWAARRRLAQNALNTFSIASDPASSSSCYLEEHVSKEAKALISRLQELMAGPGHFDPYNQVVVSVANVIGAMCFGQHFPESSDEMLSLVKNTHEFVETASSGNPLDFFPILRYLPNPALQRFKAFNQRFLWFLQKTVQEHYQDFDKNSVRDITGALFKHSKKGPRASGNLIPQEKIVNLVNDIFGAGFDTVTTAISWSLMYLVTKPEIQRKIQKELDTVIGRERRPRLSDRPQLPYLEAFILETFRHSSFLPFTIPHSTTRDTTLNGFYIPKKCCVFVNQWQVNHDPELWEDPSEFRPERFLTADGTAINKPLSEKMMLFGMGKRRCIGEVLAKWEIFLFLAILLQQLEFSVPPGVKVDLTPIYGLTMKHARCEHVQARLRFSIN
# Dipeptidyl peptidase 8 = Dipeptidyl peptidase 8 (Homo sapiens, UniProt Q6V1X1); assay: Inhibition of DPP8
# Chain of Dipeptidyl peptidase 8 (Q6V1X1 whole entry): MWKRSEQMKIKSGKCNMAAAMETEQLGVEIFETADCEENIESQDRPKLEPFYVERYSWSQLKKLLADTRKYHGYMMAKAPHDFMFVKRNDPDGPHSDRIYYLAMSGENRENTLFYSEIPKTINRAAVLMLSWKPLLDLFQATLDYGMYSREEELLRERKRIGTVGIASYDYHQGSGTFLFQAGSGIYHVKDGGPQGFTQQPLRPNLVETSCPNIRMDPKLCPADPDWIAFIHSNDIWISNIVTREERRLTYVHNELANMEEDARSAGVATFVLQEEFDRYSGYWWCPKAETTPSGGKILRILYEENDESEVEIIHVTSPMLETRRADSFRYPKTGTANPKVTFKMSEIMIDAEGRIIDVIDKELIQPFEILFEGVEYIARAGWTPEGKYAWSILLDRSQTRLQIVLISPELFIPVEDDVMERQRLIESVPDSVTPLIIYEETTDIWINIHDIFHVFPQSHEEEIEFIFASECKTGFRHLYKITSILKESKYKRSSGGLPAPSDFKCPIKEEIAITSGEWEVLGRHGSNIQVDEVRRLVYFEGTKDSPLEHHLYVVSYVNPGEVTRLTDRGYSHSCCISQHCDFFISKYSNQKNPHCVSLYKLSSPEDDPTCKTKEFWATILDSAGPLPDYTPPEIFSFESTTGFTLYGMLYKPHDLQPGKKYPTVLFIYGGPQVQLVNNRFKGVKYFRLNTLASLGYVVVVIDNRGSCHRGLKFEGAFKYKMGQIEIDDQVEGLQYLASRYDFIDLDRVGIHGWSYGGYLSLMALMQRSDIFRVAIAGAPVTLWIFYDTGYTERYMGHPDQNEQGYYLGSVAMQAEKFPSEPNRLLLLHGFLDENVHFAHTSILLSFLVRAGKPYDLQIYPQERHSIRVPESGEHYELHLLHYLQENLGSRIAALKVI
# [9] = Half life in dog at 1 mg/kg, iv; format: ADME, organism-based, Canis lupus familiaris; set-up: dose 1 mg/kg, route intravenous; conditions: in vivo
smiles,measurement,setting,value
Cn1c(=O)c2c(cc(N3CCC[C@@](C)(N)C3)n2Cc2cc(F)ccc2C#N)n(C)c1=O,Cmax,[1],245 ng/mL
same,IC50,Dipeptidyl peptidase 4,0.0011 µM
same,clearance,[2],38 mL/min/kg
same,Cmax,[3],77 ng/mL
same,AUC at 3 h,[4],2170 ng·h/mL
same,bioavailability,[5],38%
same,IC50,Cytochrome P450 3A4,> 50 µM
same,half-life,[6],3.9 h
same,Activity,Salmonella typhimurium,Non-toxic
same,Cmax,[7],76 ng/mL
same,half-life,[8],4.1 h
same,IC50,Cytochrome P450 1A2,> 50 µM
same,IC50,Dipeptidyl peptidase 8,> 50 µM
same,half-life,[9],3.1 h
